Reference: patent US9834540B2, “Omeprazole Sodium semihydrate and preparation method thereof” (TIANJIN UNIVERSITY, priority 2015, dated 2017)
“And” between values parts separate entries of the source, which are not always exact repeats. Equal values may be shown once. “Also recorded” adds a separate entry of the source.

Experiments:
[1] = Toxic responses test, intravenous lethal dose in rats; details: rat, in vivo, read-out: intravenous LD50 (median lethal dose)
[2] = Toxic responses test, lethal dose in mice; details: mouse, in vivo
rats [3] = details: rat, in vivo, 140 mg/kg/day
stomach ECL cells = details: rat, in vivo
dogs = details: dog, in vivo
[4] = DSC analysis, thermal decomposition temperature; format: physicochemical; details: 10° C./min, 25˜300° C.
Description: The DSC data is obtained by analysis using a differential scanning calorimetry (DSC1/500, Mettler Toledo Corporation, Switzerland), and the analysis conditions are as follows: adding 10 mg of sample to a 40 μL Aluminum crucible, providing high-purity nitrogen as reaction gas and shield gas with a gas-flow rate of 50 mL/min and 20 mL/min, and raising the temperature at a rate of 10° C./min and a range of 25˜300° C.

Flowability (carr index) = format: physicochemical
[5] = Thermal stability test at 60° C. (airtight container, 10 days, weighed regularly); format: physicochemical; details: for Change of crystal form / X-ray powder diffraction pattern after deposit at 60° C.: 10 days
[6] = Hygroscopicity at 40° C. by dynamic vapor sorption; format: physicochemical
[7] = Deposit at 40° C. and relative humidity 75% for 3 days; format: physicochemical; details: relative humidity 75%
Description: 0.45 g of Omeprazole Sodium monohydrate, 20 mL of ethyl acetate and 10 mL of s-butanol were added to a crystallizer, and the mixture was stirred at a temperature of 35° C. and a speed of 200 r/min for 2 hours, followed by filtrating and drying to provide 0.42 g of Omeprazole Sodium semihydrate with a mole yield of 95.6% and a HPLC purity of 99.8%. The product had same X-ray powder diffraction pattern as FIG. 1, same solid Fourier transform infrared spectrum as FIG. 2, and DSC decomposition temperature of 227.5° C.

rats [8] = test: Carcinogenic test in rats within 24 months; format: in vivo; details: 24 months persistently treated
[9] = Toxic responses, overall comparison; details: in words
male and female rats [10] = details: rat, in vivo
male and female rats [11] = test: Reproductive toxicity test; details: oral 138 mg/kg/day
[12] = prior-art description; cited from earlier work
[13] = listed as Example 1, sodium salt
[14] = listed as Example 2, sodium salt
[15] = listed as Example 3, sodium salt

With `COc1ccc2[nH]c([S+]([O-])Cc3ncc(C)c(OC)c3C)nc2c1` (stereo not drawn) [Omeprazole] as the molecule, how does the LD50 [1] read?
The LD50 was 302 mg/kg.

What about the LD50 ([2]; mice, intravenous, read-out: Intravenous LD50) of the same molecule?
Its LD50 is 82.8 mg/kg.

And the LD50 ([2]; oral, species not restated, follows mice, read-out: oral LD50)?
Its LD50 is greater than 2000 mg/kg.

And the long-term toxicity findings (rats [3])?
Its long-term toxicity findings is “liver and kidney increased in weight without histologic changes”.

And the “stomach ECL cell findings in long-term treatment” value (stomach ECL cells)?
Its value is “cell increase and benign tumour were observed in stomach ECL cells”.

What about the “Intravenous LDLo (lowest published lethal dose)” value (dogs) of the same molecule?
Its value is 500 mg/kg.

With `COc1ccc2[n-]c([S+]([O-])Cc3ncc(C)c(OC)c3C)nc2c1.[Na+]` (stereo not drawn) [Omeprazole Sodium semihydrate] as the molecule, how does the “thermal decomposition temperature (DSC decomposing exothermic peak)” value (“thermal decomposition temperature” below) [4, 13] read?
The value was 227.5 °C.

What about the “thermal decomposition temperature” value [4, 14] of the same molecule?
The value was 229.2 °C.

And the “thermal decomposition temperature” value [4, 15]?
The value was 229.5 °C.

And the “thermal decomposition temperature” value ([4]; sodium salt)?
Its value is 228.5±1 °C and 228.5 °C.

And the carr index (Flowability (carr index); [13])?
The carr index was 14.3%.

What about the carr index (Flowability (carr index); [14]) of the same molecule?
Its carr index is 13.9%.

What about the carr index (Flowability (carr index); [15]) of the same molecule?
The carr index was 14.7%.

What about the carr index (Flowability (carr index); sodium salt) of the same molecule?
Its carr index is “less than 15%”.

And the Weight changing rate ([5]; 0 day)?
The Weight changing rate was 0%.

And the Weight of sample ([5]; 0 day)?
Its Weight of sample is 9.5852 g.

What about the Weight changing rate ([5]; 5 day) of the same molecule?
The Weight changing rate was 1.1%.

And the Weight of sample ([5]; 5 day)?
Its Weight of sample is 9.4826 g.

And the Weight of sample ([5]; 10 day)?
The Weight of sample was 9.3790 g.

And the Weight changing rate ([5]; 10 day, listed as Example 1, sodium salt)?
The Weight changing rate was 2.4%.

What about the Weight changing rate ([5]; 10 day, listed as Example 2, sodium salt) of the same molecule?
Its Weight changing rate is 2.5%.

What about the Weight changing rate ([5]; 10 day, listed as Example 3, sodium salt) of the same molecule?
Its Weight changing rate is 2.4%.

And the “Change of crystal form / X-ray powder diffraction pattern after deposit at 60° C.” value [5, 13]?
Its value is “without making any significant changes in the X-ray powder diffraction pattern”.

And the “Change of crystal form / X-ray powder diffraction pattern after deposit at 60° C.” value [5, 14]?
The value was “without making any significant changes in the X-ray powder diffraction pattern”.

What about the “Change of crystal form / X-ray powder diffraction pattern after deposit at 60° C.” value [5, 15] of the same molecule?
Its value is “without making any significant changes in the X-ray powder diffraction pattern”.

And the “Change of crystal form / X-ray powder diffraction pattern after deposit at 60° C.” value ([5]; sodium salt)?
Its value is “does not make any significant change”.

And the “hygroscopicity compared with Omeprazole Sodium monohydrate” value ([6]; in words)?
Its value is “lower hygroscopicity”.

And the Weight changing rate ([6]; relative humidity 0%)?
Its Weight changing rate is 0%.

What about the Weight changing rate ([6]; relative humidity 5%) of the same molecule?
The Weight changing rate was 0.001%.

And the Weight changing rate ([6]; relative humidity 10%)?
Its Weight changing rate is 0.004%.

What about the Weight changing rate ([6]; relative humidity 15%) of the same molecule?
The Weight changing rate was 0.01%.

What about the Weight changing rate ([6]; relative humidity 20%) of the same molecule?
The Weight changing rate was 0.02%.

What about the Weight changing rate ([6]; relative humidity 25%) of the same molecule?
Its Weight changing rate is 0.02%.

And the Weight changing rate ([6]; relative humidity 30%)?
Its Weight changing rate is 0.03%.

And the Weight changing rate ([6]; relative humidity 35%)?
The Weight changing rate was 0.03%.

What about the Weight changing rate ([6]; relative humidity 40%) of the same molecule?
Its Weight changing rate is 0.03%.

What about the Weight changing rate ([6]; relative humidity 45%) of the same molecule?
The Weight changing rate was 0.14%.

What about the Weight changing rate ([6]; relative humidity 50%) of the same molecule?
Its Weight changing rate is 0.17%.

What about the Weight changing rate ([6]; relative humidity 55%) of the same molecule?
The Weight changing rate was 0.28%.

And the Weight changing rate ([6]; relative humidity 60%)?
Its Weight changing rate is 0.37%.

What about the Weight changing rate ([6]; relative humidity 65%) of the same molecule?
Its Weight changing rate is 0.45%.

What about the Weight changing rate ([6]; relative humidity 70%) of the same molecule?
The Weight changing rate was 0.53%.

And the Weight changing rate ([6]; relative humidity 75%)?
Its Weight changing rate is 0.69%.

What about the Weight changing rate [7] of the same molecule?
The Weight changing rate was 0.68%.

And the “drug mutation test result” value (Drug mutation test)?
Its value is “negative”.

And the “carcinogenic test: gastric mucosa finding” value (rats [8])?
Its value is “enterochromaffin-like cell hyperplasia in gastric mucosa”.

What about the “carcinogenic test: carcinogenesis / cancer metastasis” value (rats [8]; sodium salt) of the same molecule?
Its value is “cancer metastasis is not found; also recorded: carcinogenesis occurred without cancer metastasis”.

What about the “toxicity compared with existing Omeprazole Sodium or monohydrate” value [9] of the same molecule?
The value was “improved toxicity”.

And the “reproductive toxicity test result” value (male and female rats [10])?
Its value is “negative”.

What about the “influence on reproductive performance” value (male and female rats [11]) of the same molecule?
Its value is “no influence on reproductive performance”.

For `COc1ccc2[nH]c([S+]([O-])Cc3ncc(C)c(OC)c3C)nc2c1` (stereo not drawn) [Omeprazole Sodium hydrate], which “stability (in words)” value [12] is on record?
The value was “poor stability”.
